The values that follow come from US6638974B1, “Ascorbyl esters for the treatment of cancer” (University of South Florida, priority 1999, dated 2003).

Assay [1] has as its system PANC-1 cells. The assay can be described thus: Soft agar colony growth, PANC-1. It counts as cell-based, human. The note with it: PANC-1, 150 μM Asc-S. As for the experimental part: Soft agar experiments: To test the hypothesis that treatment of PANC-1 cells in culture with Asc-S reverses their transformed phenotype, the growth of PANC-1 was assessed in soft agar. PANC-1 cells were seeded at a density of 3×10^3/35 mm plate in 10% serum on a top layer of 0.3% agar and a bottom layer of 1% agar with and without the addition of 150 μM of Asc-S for 24 hours. The Asc-S was added to the top layer every day. Colonies greater than 125 microns in diameter (or ten cells) were counted at weekly intervals for 14-21 days. The clonogenicity was determined in three independent experiments comprising six replicates.

Assay [2] concerns PANC-1 cells. The assay can be described thus: Apoptosis by in situ TUNEL assay, PANC-1. It counts as cell-based, human. Conditions: 150 μM, 24 hours. Here is the method: Detection of Apoptosis By In Situ Hybridization Using TUNEL Reaction: Apoptosis was determined by TdT-mediated dUTP nick end labeling (TUNEL) using an in situ cell death detection kit (Boehringer Mannheim, Indianapolis, Ind.). Asc-S treated and untreated PANC-1 cells were trypsinized and cytospin preparations were obtained. Cells were fixed with paraformaldehyde (4% in PBS, pH 7.4). After a rinse in PBS, the slides were incubated in permeabilization solution. Slides were cross-reacted with TUNEL reaction mixture for 60 minutes at 37° C. in a humidified chamber. Slides were thoroughly rinsed and reacted with alkaline phosphatase substrate solution for five to ten minutes (Vector Laboratories, Burlington, Mass.). The slides were analyzed under light microscope. These experiments were performed in duplicate.

Assay [3] relates to PC-1 cells. The assay can be described thus: MTT cell growth and viability assay, PC-1. It counts as cell-based, hamster. Conditions: different concentrations of Asc-S, 24 hours. Here is the method:
Cell Growth and Vitality: The effect of Asc-S on PANC-1 and PC-1 cell growth and viability was evaluated by 3-(4,5-dimethylthiazol-2yl)-2,5-diphenyl-tetrazoliumbromide (MTT) (Sigma Chemical Co., St. Louis, Md.) assay and the details of the procedure are as described earlier (Naidu et al., 1993a) PANC-1 cells were seeded at 2.5×10^4 viable cells well in 0.1 ml MEM supplemented with 10% FBS or serum free MEM with 15 nM human recombinant IGF-1 in 96 multiwell tissue culture plates. The following day when the cells were nearly confluent, the medium was replaced with fresh medium and 50, 75, 100, 125, 150, 175 and 200 μM Asc-S were added and incubated in a CO2 incubator at 37° C. for 24 hours with respective untreated controls.
The effect of Asc-S on the proliferation of PC-1 and PANC-1 pancreatic tumor cells was studied using MTT assay. The expression of IGF1-R was analyzed by Western blot analysis, using polyclonal IGF1-R antibody (Upstate Biotech). Apoptosis was assessed by in situ hybridization using TUNEL reaction. […] This was associated with significant decrease in IGF1-R expression and increased apoptotic rate as compared to the control. Statistical analysis on the MTT assay was done using Student's T-test.

Assay [4] has as its system T98G cells. Description: Cell multiplication cycle, T98G. In kind it is cell-based, human. The note with it: 50-175 μM Asc-S. The text has this: Human glioma cell proliferation and tumorigrenicity are under autocrine control of the insulin like growth factor 1 (IGF-1) and its receptor (IGF-1R). Although it has been known for quite some time that ascorbic acid and its derivatives have anti-proliferative effects on various tumor cells, the precise mechanism of action is unknown. This study presents data on Ascorbyl Stearate (Asc-S) […] glioma (T98G) cell proliferation and transformation. Asc-S inhibited 10% fetal bovine serum (FBS) and human recombinant IGR-1 ([…]) dependent T98G cell proliferation in a dose dependent manner. […] The inhibition of IGF-1 Rs was also time and dose dependent.

Assay [5] concerns OVCAR-3 and PANC-1 s.c. tumors. The assay can be described thus: s.c. OVCAR-3 and PANC-1 tumors in BALB/c nude mice. It counts as in vivo, mouse. The note with it: 100 mg/Kg s.c. daily for two weeks. Here is the method:
The experimental approach is to test effect of Ascorbyl stearate (Asc-S) on the tumorigenicity of ovarian and pancreatic tumor cells. Procedures involve culturing OVCOR-3 (ovarian cancer cells) and PANC-1 (pancreatic cancer cells). When confluent, cells were trypsinized, washed and resuspended in sterile phosphate buffered solution ([…]) in a volume of 0.1 ml and injected s.c. above the hind leg of the mice. Two groups each for OVCOR-3 and PANC-1 tumor cells were established.
Asc-S is lipophilic compound. Asc-S was dissolved in a small volume of ethyl alcohol and then reconstituted in sterile normal saline. The final concentration of ethyl alcohol was ˜5%. At that concentration ethyl alcohol would not have any deleterious effect. […] The controls received […] of a mixture of 0.5:10 ethyl alcohol and sterile normal saline.
Group 1 is made up of OVCAR-3 cells plus Vehicle. A mixture of 0.5:10 of ethyl alcohol and normal saline was used as the vehicle. Group 2 is made up of OVCAR-3 cells plus Asc-S at a concentration of 100 mg/Kg was administered subcutaneously at the vicinity of the s.c. tumor one week prior to treatment with Asc-S. The Asc-S was distributed in a small volume of ethyl alcohol and then reconstituted into normal saline. […]
For the preliminary studies, six mice per group were used. […] The s.c. tumors were isolated, tumor sizes were measured and processed for pathological evaluation. […]

In assay [6] the test system is PDGF-R. The assay can be described thus: PDGF-R expression by Western blot, PANC-1. It counts as cell-based, human. The note with it: 150 μM, 24 hours.

On to `CCCCCCCCCCCCCCCCCC(=O)OC[C@H](O)[C@H]1OC(=O)C(O)=C1O` [Asc-S, Ascorbyl stearate], for which the “soft agar colonies, 1st week” value in assay [1] (1st week) stood at 0 colonies. Further, the “soft agar colonies, 2nd week” value in assay [1] (2nd week) is on record as 15 colonies. For the same compound, the “soft agar colonies, 3rd week” value in assay [1] (third week) turned out to be 50 colonies. Moreover, in assay [2], the “apoptosis (in situ TUNEL), PANC-1” value is reported as “significant increase in apoptosis”. Moreover, in assay [3], the “PC-1 cell proliferation (MTT assay)” value is listed as “dose dependent inhibition of PC-1 cell proliferation”. The “cell multiplication cycle, T98G” value in assay [4] is listed as “arrest of cell multiplication cycle in G1/Go phase”. For the same compound, in assay [5], the “apoptotic cells in s.c. tumors (pathological evaluation)” value is listed as “predominantly higher percentage of apoptotic cells” and the “decrease in the size of the tumors compared to untreated controls” value was 70%. In assay [6], the “PDGF-R expression, PANC-1” value was “did not affect”.
